Measurements published in article PMC3123436 (Bioorganic & medicinal chemistry, 2011).
Converted amounts (≈) assume the structure as drawn.

Legend:
Experiment in all cases: microbe, parasite or virus in culture
Conditions in all cases: Mycobacterium tuberculosis, read-out: MIC95 (95% inhibition)
[1] = system: M. tuberculosis isolate VA1215
[2] = system: M. tuberculosis isolate UCSD14768J
[3] = system: M. tuberculosis isolate VA1345

## CN(CCCNC(=O)c1ccc2c(c1)N(Cc1cccc(Cl)c1)C(=O)c1ccccc1[S+]2[O-])C1CCCCC1 (stereo not shown) [Compound 2, N-[3-(cyclohexylmethylamino)propyl]-10-[(3-chlorophenyl)methyl]-10,11-dihydro-11-oxo-dibenzo-[b,f][1,4]-thiazepine-8-carboxamide-5-oxide]
[1]
  MIC: 110 µM (≈ 62.1 µg/mL)
[2]
  MIC: 110 µM (≈ 62.1 µg/mL)
[3]
  MIC: 110 µM (≈ 62.1 µg/mL)

## CCC1CCCCN1CCCNC(=O)c1ccc2c(c1)N(Cc1cccc(Cl)c1)C(=O)c1ccccc1[S+]2[O-] (stereo not shown) [Compound 12]
[1]
  MIC: 110 µM (≈ 62.1 µg/mL)

## O=C(NCCCN1CCCC1)c1ccc2c(c1)N(Cc1cccc(Cl)c1)C(=O)c1ccccc1[S+]2[O-] (stereo not shown) [Compound 17]
[1]
  MIC: 220 µM (≈ 115 µg/mL)
[2]
  MIC: 220 µM (≈ 115 µg/mL)
[3]
  MIC: 220 µM (≈ 115 µg/mL)

## O=C(NCCCN1CCCC1)c1ccc2c(c1)N(Cc1cccc(Cl)c1)C(=O)c1ccccc1S2 [Compound 18]
[1]
  MIC: 110 µM (≈ 55.7 µg/mL)
[2]
  MIC: 110 µM (≈ 55.7 µg/mL)
[3]
  MIC: 110 µM (≈ 55.7 µg/mL)

## O=C(NCCN1CCCCCC1)c1ccc2c(c1)N(Cc1cccc(Cl)c1)C(=O)c1ccccc1[S+]2[O-] (stereo not shown) [Compound 20]
[1]
  MIC: 110 µM (≈ 59 µg/mL)
[2]
  MIC: 110 µM (≈ 59 µg/mL)
[3]
  MIC: 110 µM (≈ 59 µg/mL)
